How the values were obtained:
[1] = system: B. subtilis 168; assay: fitness (endpoint OD595 vs no drug) (fraction); higher = more growth
Procedure, shortened: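 Each well of a 384-well plate received 30 µl of culture at OD595 0.01, or 55 µl for S. pneumoniae. TSB, LB Lennox or CY served as media at 37 °C. OD595 was taken every 30 min for 14 h and corrected by subtracting the first reading. Fitness is the optical density at stationary-phase entry divided by the robust mean of no-drug controls, capped at 1.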

[2] = system: B. subtilis 168; assay: Bliss interaction score (quartile over a dose matrix) (fitness difference); higher = more antagonism (negative = synergy)
Procedure, shortened: (§1)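 Growth in each well was taken as OD595 at entry into stationary phase. Dividing by the plate's robust no-drug mean and capping at 1 gave fitness, and single-drug fitness was inferred from the combination data. The Bliss score, observed minus product-expected fitness, is summarised by quartiles over technical, biological and donor/recipient replicates.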

[3] = system: S. aureus DSM 20231; assay: as above
Procedure, shortened: as §1

[4] = system: S. aureus Newman; assay: as above
Procedure, shortened: as §1

[5] = system: S. pneumoniae D39V; assay: as above
Procedure, shortened: as §1
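For Bliss interaction score (quartile over a dose matrix) in this document: first quartile when negative (synergy) and third quartile when positive (antagonism).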

CO/N=C(\C(=O)N[C@@H]1C(=O)N2C(C(=O)O)=C(COC(C)=O)CS[C@H]12)c1csc(N)n1 [Cefotaxime] + CO[C@@H]1[C@@H](OC(N)=O)[C@@H](O)[C@H](Oc2ccc3c(O)c(NC(=O)c4ccc(O)c(CC=C(C)C)c4)c(=O)oc3c2C)OC1(C)C [Novobiocin]
fitness, [1], one replicate
Details	first compound 0.00775 µg/mL	first compound 0.0155 µg/mL	first compound 0.031 µg/mL	first compound 0.0625 µg/mL	first compound 0.125 µg/mL	first compound 0.25 µg/mL
partner 0.05 µg/mL	0.908	0.735	0.565	–	–	–
partner 0.1 µg/mL	0.955	0.715	0.563	–	–	–
partner 0.125 µg/mL	–	–	–	0.291	0.169	0.117
partner 0.2 µg/mL	0.945	0.676	0.51	–	–	–
partner 0.25 µg/mL	–	–	–	0.112	0.0673	0.0477
partner 0.5 µg/mL	–	–	–	0.0592	0.0517	0.0477

fitness, [1]
Details	first compound 0.5 µg/mL	first compound 1 µg/mL	first compound 2 µg/mL
partner 0.0125 µg/mL	0.27	0.122	0.127
partner 0.025 µg/mL	0.275	0.135	0.131
partner 0.05 µg/mL	0.276	0.153	0.142

Details	Bliss interaction score
[2]	0.097
[3]	0.0739
[4]	0.0646
[5]	-0.126

CO/N=C(\C(=O)N[C@@H]1C(=O)N2C(C(=O)O)=C(COC(N)=O)CS[C@H]12)c1ccco1 [Cefuroxime] + COc1cc(Cc2cnc(N)nc2N)cc(OC)c1OC [Trimethoprim]
fitness, [1], one replicate
Details	partner 0.1 µg/mL	partner 0.125 µg/mL	partner 0.2 µg/mL	partner 0.25 µg/mL	partner 0.4 µg/mL	partner 1 µg/mL	partner 2 µg/mL
first compound 0.04875 µg/mL	–	0.392	–	0.382	–	0.37	0.375
first compound 0.0975 µg/mL	–	0.443	–	0.46	–	0.315	0.247
first compound 0.195 µg/mL	0.325	–	0.259	–	0.115	0.279	0.147
first compound 0.39 µg/mL	0.162	0.227	0.262	–	0.207	–	–
first compound 0.78 µg/mL	0.237	0.155	0.221	–	0.17	–	–

fitness, [1]
Details	first compound 0.04875 µg/mL	first compound 0.0975 µg/mL	first compound 0.195 µg/mL	first compound 0.39 µg/mL	first compound 0.78 µg/mL	first compound 1.562 µg/mL	first compound 3.125 µg/mL	first compound 6.25 µg/mL
partner 0.125 µg/mL	–	–	0.289	–	–	–	–	–
partner 0.25 µg/mL	–	–	0.315	0.187	0.178	–	–	–
partner 0.5 µg/mL	0.397	0.407	0.29	0.19	0.168	0.286	0.26	0.255

Details	Bliss interaction score
[2]	0.098
[3]	-0.188
[4]	-0.438
[5]	-0.0241

CO/N=C(\C(=O)N[C@@H]1C(=O)N2C(C(=O)O)=C(COC(N)=O)CS[C@H]12)c1ccco1 [Cefuroxime] + C[C@H]1COc2c(N3CCN(C)CC3)c(F)cc3c(=O)c(C(=O)O)cn1c23 [Levofloxacin]
fitness, [1], one replicate
Details	first compound 0.04875 µg/mL	first compound 0.0975 µg/mL	first compound 0.195 µg/mL	first compound 0.39 µg/mL	first compound 0.78 µg/mL	first compound 1.562 µg/mL	first compound 3.125 µg/mL	first compound 6.25 µg/mL
partner 0.001 µg/mL	–	–	0.284	0.15	0.156	–	–	–
partner 0.002 µg/mL	0.503	0.466	–	0.146	0.112	–	–	–
partner 0.0039 µg/mL	0.498	0.456	–	0.127	0.0881	–	–	–
partner 0.0078 µg/mL	0.432	0.397	0.334	–	–	–	–	–
partner 0.0312 µg/mL	0.055	0.0225	0.0495	–	–	0.0432	0.0263	0.0208
partner 0.0625 µg/mL	0.0626	0.0281	0.0412	–	–	0.0291	0.027	0.0162
partner 0.125 µg/mL	0.0489	0.0206	0.0412	–	–	0.0267	0.0197	0.0093

[1], first compound 0.195 µg/mL
Details	fitness
partner 0.002 µg/mL	0.291
partner 0.0039 µg/mL	0.267

Details	Bliss interaction score
[2]	-0.0899
[3]	-0.22
[4]	-0.146
[5]	0.0603

CO/N=C(\C(=O)N[C@@H]1C(=O)N2C(C(=O)O)=C(COC(N)=O)CS[C@H]12)c1ccco1 [Cefuroxime] + CCC(C)C1C(=O)NC(=C)C(=O)NC(C(=O)NC(CSCC(C(=O)N1)NC(=O)/C(=C/C)/NC(=O)C(C(C)CC)N)C(=O)NC2C(SCC(NC(=O)CNC(=O)C3CCCN3C2=O)C(=O)NC(CCCCN)C(=O)NC4C(SCC(NC(=O)CNC(=O)C(NC(=O)C(NC(=O)C(NC(=O)CNC4=O)C)CC(C)C)CCSC)C(=O)NC(CC(=O)N)C(=O)NC(CCSC)C(=O)NC(CCCCN)C(=O)NC5C(SCC6C(=O)NC(C(=O)NC(CSC(C(C(=O)N6)NC(=O)C(NC5=O)C)C)C(=O)NC(CO)C(=O)NC(C(C)CC)C(=O)NC(CC7=CN=CN7)C(=O)NC(C(C)C)C(=O)NC(=C)C(=O)NC(CCCCN)C(=O)O)CC8=CN=CN8)C)C)C)CC(C)C [Nisin]
[1], one replicate, main component drawn
Details	fitness
first compound 0.04875 µg/mL, partner 0.5 µg/mL	0.608
first compound 0.04875 µg/mL, partner 1 µg/mL	0.529
first compound 0.04875 µg/mL, partner 2 µg/mL	0.417
first compound 0.04875 µg/mL, partner 4 µg/mL	0.0351
first compound 0.04875 µg/mL, partner 8 µg/mL	0.0258
first compound 0.04875 µg/mL, partner 16 µg/mL	0.0482
first compound 0.0975 µg/mL, partner 0.5 µg/mL	0.471
first compound 0.0975 µg/mL, partner 1 µg/mL	0.427
first compound 0.0975 µg/mL, partner 2 µg/mL	0.261
first compound 0.0975 µg/mL, partner 4 µg/mL	0.032
first compound 0.0975 µg/mL, partner 8 µg/mL	0.0195
first compound 0.0975 µg/mL, partner 16 µg/mL	0.02
first compound 0.195 µg/mL, partner 0.5 µg/mL	0.385
first compound 0.195 µg/mL, partner 1 µg/mL	0.382
first compound 0.195 µg/mL, partner 1.25 µg/mL	0.173
first compound 0.195 µg/mL, partner 1.6 µg/mL	0.0755
first compound 0.195 µg/mL, partner 2 µg/mL	0.278
first compound 0.195 µg/mL, partner 2.5 µg/mL	0.0381
first compound 0.195 µg/mL, partner 3.2 µg/mL	0.0377
first compound 0.195 µg/mL, partner 4 µg/mL	0.0274
first compound 0.195 µg/mL, partner 5 µg/mL	0.0619
first compound 0.195 µg/mL, partner 6.4 µg/mL	0.0264
first compound 0.195 µg/mL, partner 8 µg/mL	0.0204
first compound 0.195 µg/mL, partner 16 µg/mL	0.0103
first compound 0.39 µg/mL, partner 1.25 µg/mL	0.086
first compound 0.39 µg/mL, partner 1.6 µg/mL	0.0435
first compound 0.39 µg/mL, partner 2.5 µg/mL	0.0309
first compound 0.39 µg/mL, partner 3.2 µg/mL	0.0108
first compound 0.39 µg/mL, partner 5 µg/mL	0.0219
first compound 0.39 µg/mL, partner 6.4 µg/mL	0.0352
first compound 0.78 µg/mL, partner 1.25 µg/mL	0.0678
first compound 0.78 µg/mL, partner 1.6 µg/mL	0.0281
first compound 0.78 µg/mL, partner 2.5 µg/mL	0.0242
first compound 0.78 µg/mL, partner 3.2 µg/mL	0.0058
first compound 0.78 µg/mL, partner 5 µg/mL	0.0235
first compound 0.78 µg/mL, partner 6.4 µg/mL	0.0238
first compound 1.562 µg/mL, partner 0.5 µg/mL	0.257
first compound 1.562 µg/mL, partner 1 µg/mL	0.0875
first compound 1.562 µg/mL, partner 2 µg/mL	0.038
first compound 3.125 µg/mL, partner 0.5 µg/mL	0.173
first compound 3.125 µg/mL, partner 1 µg/mL	0.0836
first compound 3.125 µg/mL, partner 2 µg/mL	0.02
first compound 6.25 µg/mL, partner 0.5 µg/mL	0.105
first compound 6.25 µg/mL, partner 1 µg/mL	0.0185
first compound 6.25 µg/mL, partner 2 µg/mL	0.0198

main component drawn
Details	Bliss interaction score
[2]	-0.0638
[3]	-0.109
[4]	-0.331
[5]	0.0468

Source: the supplement of paper PMC10627819
